According to ChEMBL document CHEMBL1201862, “PubChem BioAssay data set” (2004):
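Protocol summary: plate cells (96-well), add compound at 5 concentrations, incubate 48 h, interpolate endpoints linearly. At the GI50, growth is halved.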 Activity calls are given as the source filed them. No stated cut-off is given here; in the data, active = GI50 up to about 1.1 µM and inactive = higher.

What was measured:
Test in all cases: inhibition of tumour cell growth, NCI panel, 48 h
UACC-62 = test system: UACC-62
CCRF-CEM = test system: CCRF-CEM
HT-29 = test system: HT-29
SK-OV-3 = test system: SK-OV-3
SNB-19 = test system: SNB-19
A549 = test system: A549
U-251 = test system: U-251
MOLT-4 = test system: MOLT-4
SK-MEL-5 = test system: SK-MEL-5
786-0 = test system: 786-0
UO-31 = test system: UO-31
CAKI-1 = test system: CAKI-1
SF-539 = test system: SF-539
NCI-H226 = test system: NCI-H226
OVCAR-5 = test system: OVCAR-5
KM12 = test system: KM12
SNB-75 = test system: SNB-75

Measured: GI50

COC(=O)N/N=C/C(=C/Nc1ccccc1)[N+](=O)[O-]
inactive: UACC-62 46.2 µM | CCRF-CEM > 100 µM | HT-29 > 100 µM | SK-OV-3 > 100 µM | SNB-19 > 100 µM | A549 > 100 µM | U-251 > 100 µM | MOLT-4 > 100 µM | SK-MEL-5 > 100 µM | 786-0 > 100 µM | UO-31 > 100 µM

CC1=C(C(=O)CC(=O)C(=O)Nc2cccc(Cl)c2C)Sc2ccccc2N1
inactive: UACC-62 > 100 µM | CAKI-1 > 100 µM | CCRF-CEM > 100 µM | HT-29 > 100 µM | SF-539 > 100 µM | SK-OV-3 > 100 µM | NCI-H226 > 100 µM | SNB-19 > 100 µM | A549 > 100 µM | OVCAR-5 > 100 µM | U-251 > 100 µM | MOLT-4 > 100 µM | KM12 > 100 µM | SK-MEL-5 > 100 µM | 786-0 > 100 µM | UO-31 > 100 µM

COS(=O)CCOC(=O)c1ccccc1SSc1ccccc1C(=O)OCCS(=O)OC (centres undefined)
inactive: UACC-62 20.5 µM | CAKI-1 27.2 µM | CCRF-CEM 3.79 µM | HT-29 14.1 µM | SF-539 25.3 µM | SK-OV-3 > 100 µM | SNB-19 > 100 µM | SNB-75 6.31 µM | A549 > 100 µM | OVCAR-5 40.9 µM | U-251 69.7 µM | MOLT-4 3.44 µM | KM12 27.1 µM | SK-MEL-5 67 µM | 786-0 20.3 µM | UO-31 15.5 µM

C/C(=N\NC(=O)CC(=O)Nc1ccc(Cl)cc1)c1cc2ccccc2oc1=O
inactive: UACC-62 > 100 µM | CCRF-CEM > 100 µM | HT-29 > 100 µM | SF-539 > 100 µM | SK-OV-3 > 100 µM | NCI-H226 > 100 µM | SNB-19 > 100 µM | SNB-75 66.1 µM | A549 > 100 µM | U-251 > 100 µM | MOLT-4 > 100 µM | KM12 > 100 µM | SK-MEL-5 > 100 µM | 786-0 > 100 µM | UO-31 > 100 µM

CC(=O)NC1C(OCc2ccccc2)OC(COC(=O)CCCCCCCCCCNc2ccc([N+](=O)[O-])c3[nH]c4ccccc4c(=O)c23)C(O)C1OC(C)C(=O)NC(C)C(=O)NC(CCC(N)=O)C(=O)OCc1ccccc1 (centres undefined)
inactive: UACC-62 > 100 µM | CAKI-1 > 100 µM | HT-29 > 100 µM | SF-539 > 100 µM | SK-OV-3 > 100 µM | NCI-H226 > 100 µM | SNB-19 > 100 µM | SNB-75 > 100 µM | A549 > 100 µM | OVCAR-5 > 100 µM | U-251 > 100 µM | MOLT-4 > 100 µM | KM12 > 100 µM | SK-MEL-5 > 100 µM | 786-0 > 100 µM | UO-31 > 100 µM
